# Measurements reported in ChEMBL document CHEMBL1201862, “PubChem BioAssay data set” (2004).
# Activity calls are given as the source filed them.
# What was measured:
# [1] = inhibitors acting on PAX2 in cells – cell-based, plate reader, dry powder samples, selectivity assay for PAX8 inhibitor project, dose response (AID 743048); format: functional;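 also: HEK293 cells carrying a WT1 promoter luciferase reporter driven by expressed Pax2; potency is for inhibition of Pax2 driven reporter signal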
# [2] = IGROV1 cell killing – plate reader, dry powder samples, PAX8 inhibitor project, dose response (AID 743043); format: functional, cell-based; conditions: IGROV-1
# [3] = PAX8-dependent cell viability loss – plate reader, dry powder, dose response (AID 743049); format: functional, cell-based
# [4] = OVCAR4 cell viability loss – plate reader, dry powder, SA11, cytotoxicity control for PAX8 inhibitor project, dose response (AID 743150); format: functional, cell-based; conditions: OVCAR-4
# [5] = COV434 cell viability loss – plate reader, dry powder, SA7, cytotoxicity control for PAX8 inhibitor project, dose response (AID 743145); format: functional, cell-based
# [6] = target: Paired box protein Pax-8 (Homo sapiens, UniProt Q06710); assay: PAX8 transcriptional activity inhibition in RMG-I – RMG-I cells, luciferase, cherry-pick, dose response (AID 687027); format: functional, cell-based;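 also: luciferase reporter driven by Pax8 target thyroperoxidase promoter measured by SteadyGlo luminescence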
# Sequence of Paired box protein Pax-8 (Q06710 whole entry): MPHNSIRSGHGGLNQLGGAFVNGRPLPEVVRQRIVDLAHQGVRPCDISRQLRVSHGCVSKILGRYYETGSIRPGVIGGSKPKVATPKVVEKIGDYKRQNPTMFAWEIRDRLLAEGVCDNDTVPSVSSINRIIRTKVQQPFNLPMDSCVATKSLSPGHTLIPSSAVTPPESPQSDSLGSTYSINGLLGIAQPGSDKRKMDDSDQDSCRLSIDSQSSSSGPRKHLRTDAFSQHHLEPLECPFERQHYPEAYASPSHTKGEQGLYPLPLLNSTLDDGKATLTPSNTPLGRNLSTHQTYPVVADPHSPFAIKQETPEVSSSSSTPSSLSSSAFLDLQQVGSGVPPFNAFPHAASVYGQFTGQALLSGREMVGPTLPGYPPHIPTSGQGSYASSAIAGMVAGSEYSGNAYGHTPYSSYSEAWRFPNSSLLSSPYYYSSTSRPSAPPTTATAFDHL
# [7] = HEK-293T cell viability reduction – luminescence, B-cell screen hits, cytotoxicity control for BCR NF-kB inhibitor project, dose response (AID 489021); format: functional, cell-based;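 also: HEK-293T cells carrying an NF-kB luciferase reporter; cells exposed to compound for about 14 hours before viability readout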
# [8] = PAX5 cellular inhibition readout – cell-based, plate reader, dry powder samples, selectivity assay for PAX8 inhibitor project, dose response (AID 743047); format: functional;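 also: HEK293 cells carrying a Pax5 driven CD19 promoter luciferase reporter; potency of inhibitors that lower reporter luminescence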
# [9] = OVCAR-3 cell viability loss – plate reader, dry powder samples, PAX8 inhibitor project, dose response (AID 743044); format: functional, cell-based
# [10] = toxicity toward immortalized ovarian surface epithelium – cell-based, plate reader, dry powder samples, cytotoxicity control for PAX8 inhibitor project, dose response (AID 743045); format: functional
# [11] = OVCAR8 cell viability loss – plate reader, dry powder samples, PAX8 project, dose response (AID 743197); format: functional, cell-based; conditions: OVCAR-8
# [12] = A2780 cell killing – plate reader, dry powder samples, cytotoxicity control, dose response (AID 743046); format: functional, cell-based
# [13] = target: NAD-dependent protein deacylase sirtuin-5, mitochondrial (Homo sapiens, UniProt Q9NXA8); assay: blockers of sirtuin-5 peptide desuccinylation – biochemical, fluorescence imaging, cherry-pick, set 6, dose response (AID 720597)
# Sequence of NAD-dependent protein deacylase sirtuin-5, mitochondrial (Q9NXA8 whole entry): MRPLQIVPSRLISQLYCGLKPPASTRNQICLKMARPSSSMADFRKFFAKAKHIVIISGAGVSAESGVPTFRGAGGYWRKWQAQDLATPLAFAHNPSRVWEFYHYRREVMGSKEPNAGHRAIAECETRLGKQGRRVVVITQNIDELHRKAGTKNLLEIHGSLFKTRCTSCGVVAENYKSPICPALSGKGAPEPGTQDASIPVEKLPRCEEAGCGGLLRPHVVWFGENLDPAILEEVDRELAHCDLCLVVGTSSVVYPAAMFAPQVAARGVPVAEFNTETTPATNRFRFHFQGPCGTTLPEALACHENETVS
# [14] = viability loss in A549 lung cells – cell-based, 24 h, CellTiter-Glo luminescence, cherry-picks, cytotoxicity control, dose response (AID 1053115); format: functional; conditions: A549, 24 h
# [15] = viability loss in MITF-independent A375 cells – cell-based, CellTiter-Glo luminescence, dry powder, set 6, counter-screen for MITF inhibitor project, dose response (AID 624488); format: functional; conditions: A-375
# [16] = growth inhibition of SK-MEL-5 melanoma cells – cell-based, CellTiter-Glo luminescence, dry powder, set 8, orthogonal assay for MITF inhibitor project, dose response (AID 651586); format: functional
# [17] = MITF Measured in Cell-Based System Using Plate Reader - 2084-01_Inhibitor_Dose_DryPowder_Activity_Set6.; format: functional
# [18] = MITF Measured in Cell-Based System Using Plate Reader - 2084-01_Inhibitor_Dose_DryPowder_Activity_Set7.; format: functional
# [19] = MITF Orthogonal Assay: SK-MEL-5 CTG Assay Measured in Cell-Based System Using Plate Reader - 2084-02_Inhibitor_Dose_DryPowder_Activity_Set5.; format: functional
# [20] = growth inhibition of MALME3 cells – cell-based, CellTiter-Glo luminescence, dry powder, set 5, orthogonal assay for MITF inhibitor project, dose response (AID 651584); format: functional; conditions: MALME-3
# [21] = cytotoxicity in MITF-independent A375 cells – cell-based, CellTiter-Glo luminescence, dry powder, set 4, counter-screen for MITF inhibitor project, dose response (AID 624364); format: functional; conditions: A-375;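 also: A375 melanoma cells are MITF independent so this is a counter screen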
# [22] = cytotoxicity in melanoma parental cells – cell-based, CellTiter-Glo, dry powder, set 6, MITF inhibitor project, dose response (AID 624429); format: functional; conditions: SK-MEL-5
# [23] = MITF Orthogonal Assay: MALME3 CTG Assay Measured in Cell-Based System Using Plate Reader - 2084-04_Inhibitor_Dose_DryPowder_Activity_Set6.; format: functional; conditions: MALME-3
# [24] = inhibitors of TRPM1-promoter reporter in SK-MEL-5 – cell-based, luciferase, dry powder, set 9, MITF inhibitor project, dose response (AID 651588); format: functional
# [25] = viability loss in MITF-independent A375 cells – cell-based, CellTiter-Glo luminescence, dry powder, set 7, counter-screen for MITF inhibitor project, dose response (AID 624490); format: functional; conditions: A-375
# [26] = target: Glutathione-S-transferase (Schistosoma japonicum, UniProt Q26513); assay: GST-antibody interaction or FRET quenching – biochemical, TR-FRET, artefact control for Vif-APOBEC3G degradation inhibitor project, dose response (AID 1117362); format: functional
# Sequence of Glutathione-S-transferase (Q26513 whole entry): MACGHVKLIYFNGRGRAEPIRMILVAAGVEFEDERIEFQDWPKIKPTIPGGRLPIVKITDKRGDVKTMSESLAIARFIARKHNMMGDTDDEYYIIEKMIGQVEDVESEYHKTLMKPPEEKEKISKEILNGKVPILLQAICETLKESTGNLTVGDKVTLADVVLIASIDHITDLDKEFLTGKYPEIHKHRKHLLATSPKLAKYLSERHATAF
smiles,measurement,setting,value
CCN(CC(=O)Nc1c(F)cccc1F)C(=O)c1cc(S(=O)(=O)N(C)C)ccc1N1CCCC1,AC50,[1],88.8 µM (active)
same,AC50,[2],14.2 µM (active)
same,AC50,[3],39.3 µM (active)
same,AC50,[4],58.9 µM (active)
same,AC50,[5],29.4 µM (active)
same,AC50,[6],7.72 µM (active)
same,IC50,[7],> 80 µM (inactive)
same,AC50,[8],73.1 µM (active)
Cc1ccc(S(=O)(=O)Nc2ccc3c(c2)C(=O)N([C@H](C)CO)C[C@H](C)[C@@H](CN(C)S(=O)(=O)c2ccc(C)cc2)OCCCC[C@H](C)O3)cc1,AC50,[9],18.5 µM (active)
same,AC50,[2],44.2 µM (active)
same,AC50,[10],23.6 µM (active)
same,AC50,[11],> 70 µM (inactive)
same,AC50,[6],5.76 µM (active)
same,AC50,[12],34.5 µM (active)
O=C(C[C@H]1C[C@H]2c3cc(NC(=O)C4CCC4)ccc3O[C@H]2[C@H](CO)O1)NCCN1CCCCC1,AC50,[13],> 30 µM (inactive)
OC[C@@H]1Nc2ccc(-c3ccccc3)cc2[C@H]2[C@@H]1CCN2Cc1ccc(F)cc1,AC50,[14],47.6 µM (active)
NC1=C(NS(=O)(=O)c2ccccc2)C(=O)c2ccccc2C1=O,AC50,[15],54.6 µM (active)
same,AC50,[16],17.5 µM (active)
same,AC50,[17],7 µM (active)
same,AC50,[18],4.7 µM (active)
same,AC50,[19],16.1 µM (active)
same,AC50,[20],22.6 µM (active)
same,AC50,[21],> 70 µM (inactive)
same,AC50,[22],16.1 µM (active)
same,AC50,[23],22.6 µM (active)
same,AC50,[24],15.8 µM (active)
same,AC50,[25],> 70 µM (inactive)
COC(=O)/C(=N/Nc1ccccc1C)N1CCCc2ccccc21,IC50,[26],1.9 µM (active)
